Measured values from US6462055B2, “Alpha-methylbenzyl-containing thiourea inhibitors of herpes viruses containing a phenylenediamine group” (Wyeth, priority 1998, dated 2002).
≈ marks a conversion by molar mass, not a printed value.

What was measured:
HSV-1 = test: HSV Antiviral (ELISA) Assay in Vero cells; assay type: cell-based, herpes simplex virus type 1; details: HSV-1, Vero cells; for IC50: Human alphaherpesvirus 1, read-out: IC50 (ug/ml) HSV
How it was run: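 Viral replication was quantified by cell-fixed ELISA for HSV glycoprotein D, using a β-galactosidase reporter and fluorogenic umbelliferyl substrate, about 24 h after HSV-1 infection (MOI 0.006) of Vero cells. Compounds, at several concentrations, were added 30 min pre-infection. IC50 was derived from fluorescence relative to the compound-free signal.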

VZV strain Ellen = test: VZV Antiviral (ELISA) Assay in human foreskin fibroblast cells; assay type: cell-based, varicella-zoster virus; details: for IC50: read-out: IC50 (ug/ml) VZV
How it was run: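 HFF cells infected overnight with VZV Ellen at MOI <0.1, mixed with uninfected cells, were seeded with compound and grown 3 days at 37° C in DMEM/2% FBS. Viral glycoprotein II was detected by ELISA with β-galactosidase-linked secondary; IC50 from fluorescence versus no-compound wells.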

[1] = system: HCMV recombinant mutant virus (RV145); test: microbe, parasite or virus in culture; assay type: cell-based, human cytomegalovirus; details: for IC50: Human betaherpesvirus 5, read-out: IC50 ug/ml HCMV, HCMV
How it was run: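 Read-out is beta-glucuronidase activity in cell lysates 96 h after infection, measured colorimetrically or fluorometrically. Reporter virus RV145 expresses the enzyme under a viral promoter in human foreskin fibroblasts treated with inhibitor.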

[2] = Human alphaherpesvirus 3, Fibroblast

Row | SMILES | IC50 (ug/ml) HSV (HSV-1) | IC50 (ug/ml) VZV (VZV strain Ellen) | % inhibition 10 ug/ml VZV (VZV strain Ellen) | IC50 ug/ml HCMV [1] | IC50 (HSV-1) | IC50 (VZV strain Ellen; [2]) | IC50 [1] | inhibition at 10 µg/mL (VZV strain Ellen; Human alphaherpesvirus 3, Fibroblast, read-out: % inhibition 10 ug/ml VZV, 10 ug/ml)
1 | CN(C)c1c(Cl)cccc1NC(=S)Nc1ccc(NC(=O)c2c(F)cccc2F)cc1 [Example 504] | 6 µg/mL (≈ 13 µM) | 4.5 µg/mL (≈ 9.76 µM) | 99% | 2 µg/mL (≈ 4.34 µM) |  |  |  | 
2 | Cc1ccccc1C(=O)Nc1ccc(NC(=S)Nc2ccc(N(C)C)c(Cl)c2)cc1 [Example 346] | 6 µg/mL (≈ 13.7 µM) | >10 µg/mL | 62% | 2 µg/mL (≈ 4.56 µM) |  |  |  | 
3 | COc1cc(OC)c(NC(=S)Nc2ccc(NC(=O)c3ccccc3C)cc2)cc1Cl [Example 114] | 0.3 µg/mL (≈ 0.658 µM) | >10 µg/mL | 17% | 5 µg/mL (≈ 11 µM) |  |  |  | 
4 | COc1cccc(C(=O)Nc2ccc(NC(=S)Nc3cc(Cl)c(OC)cc3OC)cc2)c1 [Example 120] | 0.8 µg/mL (≈ 1.7 µM) | >10 µg/mL | 25% | 5 µg/mL (≈ 10.6 µM) |  |  |  | 
5 | CC(NC(=S)Nc1ccc(NC(=O)c2ccccc2F)cc1)c1ccccc1Br (stereo not drawn) [Example 783] | >10 µg/mL | 0.3 µg/mL (≈ 0.635 µM) |  | 1.1 µg/mL (≈ 2.33 µM) |  |  |  | 
6 | Cc1ccccc1C(=O)Nc1ccc(NC(=S)Nc2ccc(N(C)C3CCN(C)CC3)c(Cl)c2)cc1 [Example 375] | 5 µg/mL (≈ 9.58 µM) | 7 µg/mL (≈ 13.4 µM) | 95% | 1.5 µg/mL (≈ 2.87 µM) |  |  |  | 
7 | O=C(Nc1ccc(NC(=S)Nc2cccc(C(F)(F)F)c2)cc1)c1ccccc1F [Example 433] | >10 µg/mL | >10 µg/mL | 0% | >10 µg/mL |  |  |  | 
8 | CC(C)CN(C)c1cc(NC(=S)Nc2ccc(NC(=O)c3ccccc3F)cc2)cc(C(F)(F)F)c1 [Example 596] | >10 µg/mL | >10 µg/mL |  | 2 µg/mL (≈ 3.86 µM) |  |  |  | 
9 | Cc1ccccc1C(C)NC(=S)Nc1ccc(NC(=O)c2ccccc2F)cc1 (stereo not drawn) [Example 775] | >10 µg/mL | >7.5 µg/mL |  | 1 µg/mL (≈ 2.45 µM) |  |  |  | 
10 | CS(=O)(=O)Nc1ccc(NC(=S)Nc2ccc(NC(=O)c3ccccc3F)cc2)cc1Cl [Example 370] | >10 µg/mL | >10 µg/mL | 16% | >10 µg/mL |  |  |  | 
11 | COc1cc(OC)c(NC(=S)Nc2ccc(NC(=O)c3cccc(C(=O)O)c3)cc2)cc1Cl [Example 209] | >50 µg/mL | >10 µg/mL | 22% | >50 µg/mL |  |  |  | 
12 | O=C(CN1CCSCC1)Nc1ccc(NC(=S)Nc2ccc(NC(=O)c3ccccc3F)cc2)cc1Cl [Example 407] | 4 µg/mL (≈ 7.17 µM) | 0.7 µg/mL (≈ 1.25 µM) | 87% | >10 µg/mL |  |  |  | 
13 | CC(NC(=S)Nc1ccc(NC(=O)c2cccc(F)c2)cc1)c1ccc(F)cc1 (stereo not drawn) [Example 800] |  |  |  |  | > 10 µg/mL | > 7.5 µg/mL | > 10 µg/mL | 
14 | COc1cc(OC)c(NC(=S)Nc2ccc(NC(=O)c3cccc(OC(F)(F)F)c3)cc2)cc1Cl [Example 256] | 2 µg/mL (≈ 3.8 µM) | >10 µg/mL | 15% | 9 µg/mL (≈ 17.1 µM) |  |  |  | 
15 | O=C(Nc1ccc(NC(=S)NC(CO)c2ccccc2)cc1)c1ccccc1F (stereo not drawn) [Example 797] |  |  |  |  | > 10 µg/mL | 1.7 µg/mL (≈ 4.15 µM) | > 10 µg/mL | 
16 | COc1cccc(C(=O)Nc2ccc(NC(=S)Nc3ccc(C)c(Cl)c3)cc2)c1 [Example 232] | 1 µg/mL (≈ 2.35 µM) | >10 µg/mL | 21% | >10 µg/mL |  |  |  | 

Row | SMILES | IC50 (ug/ml) HSV (HSV-1) | IC50 (ug/ml) VZV (VZV strain Ellen) | % inhibition 10 ug/ml VZV (VZV strain Ellen) | IC50 ug/ml HCMV [1] | IC50 (HSV-1) | IC50 (VZV strain Ellen; [2]) | IC50 [1] | inhibition at 10 µg/mL (VZV strain Ellen; Human alphaherpesvirus 3, Fibroblast, read-out: % inhibition 10 ug/ml VZV, 10 ug/ml)
17 | O=C(Nc1ccc(NC(=S)Nc2cc(C(F)(F)F)cc(C(F)(F)F)c2)cc1)c1ccccc1F [Example 517] | >10 µg/mL | >10 µg/mL | 5% | 1.1 µg/mL (≈ 2.19 µM) |  |  |  | 
18 | CC(C)COc1ccc(NC(=S)Nc2ccc(NC(=O)c3ccccc3F)cc2)cc1Cl [Example 994, N-{4-[3-(3-Chloro-4-isobutoxy-phenyl)-thioureido]-phenyl}-2-fluoro-benzamide] |  |  |  |  | > 10 µg/mL | > 10 µg/mL | > 10 µg/mL | 
19 | COc1cc(OC)c(NC(=S)Nc2ccc(NC(=O)c3cccc(F)c3F)cc2)cc1Cl [Example 186] | 0.2 µg/mL (≈ 0.418 µM) | >10 µg/mL | 52% | >10 µg/mL |  |  |  | 
20 | COc1cc(OC)c(NC(=S)Nc2ccc(NC(=O)c3cccc(OCc4ccccc4)c3)cc2)cc1Cl [Example 210] | 5 µg/mL (≈ 9.12 µM) | >10 µg/mL | 14% | >10 µg/mL |  |  |  | 
21 | COc1cccc(C(C)NC(=S)Nc2ccc(NC(=O)c3ccccc3F)cc2)c1 (stereo not drawn) [Example 789] | >10 µg/mL | 1.5 µg/mL (≈ 3.54 µM) |  | >2.2 µg/mL |  |  |  | 
22 | O=C(Nc1ccc(NC(=S)Nc2cccc(F)c2)cc1)c1ccccc1F [Example 962, 2-Fluoro-N-{4-[3-(3-fluoro-phenyl)-thioureido]-phenyl}-benzamide] |  |  |  |  | > 10 µg/mL | > 10 µg/mL | > 10 µg/mL | 10%
23 | Cc1ccc(NC(=S)Nc2ccc(NC(=O)c3ccccc3C)cc2)cc1Cl [Example 234] | 0.2 µg/mL (≈ 0.488 µM) | >10 µg/mL | 68% | 1 µg/mL (≈ 2.44 µM) |  |  |  | 
24 | COc1cc(OC)c(NC(=S)Nc2ccc(NC(=O)c3ccccc3OC)cc2)cc1Cl [Example 119] | 0.5 µg/mL (≈ 1.06 µM) | >10 µg/mL | 1% | > 10 µg/mL |  |  |  | 
25 | O=C(Nc1ccc(NC(=S)NCCc2ccc(F)cc2)cc1)c1ccccc1F [Example 553] |  |  |  |  | > 10 µg/mL | 7 µg/mL (≈ 17 µM) | > 0.5 µg/mL | 
26 | CC(NC(=S)Nc1ccc(NC(=O)c2cc3ccccc3cn2)cc1)c1cc2ccccc2o1 (stereo not drawn) [Example 985, Isoquinoline-3-carboxylic acid {4-[3-(1-benzofuran-2-yl-ethyl)-thioureido]-phenyl}-amide] |  |  |  |  | > 10 µg/mL | 0.035 µg/mL (≈ 0.075 µM) | > 10 µg/mL | 
27 | Cc1ccc(C(C)NC(=S)Nc2ccc(NC(=O)c3ccccc3F)cc2)cc1 (stereo not drawn) [Example 782] | >10 µg/mL | 3 µg/mL (≈ 7.36 µM) |  | 0.9 µg/mL (≈ 2.21 µM) |  |  |  | 
28 | CS(=O)(=O)c1ccc(NC(=S)Nc2ccc(NC(=O)c3c(F)cccc3F)cc2)cc1Cl [Example 393] | >10 µg/mL | >10 µg/mL | 62% | 0.5 µg/mL (≈ 1.01 µM) |  |  |  | 
29 | N#Cc1cccc(NC(=S)Nc2ccc(NC(=O)c3ccccc3F)cc2)c1 [Example 461] | >10 µg/mL | >10 µg/mL | 33% | >10 µg/mL |  |  |  | 
30 | CC(NC(=S)Nc1ccc(NC(=O)c2ccccc2F)cc1)c1cccc(Cl)c1 (stereo not drawn) [Example 779] | >10 µg/mL | >7.5 µg/mL |  | 1.2 µg/mL (≈ 2.8 µM) |  |  |  | 
31 | CCSc1ccc(NC(=S)Nc2ccc(NC(=O)c3ccccc3F)cc2)cc1Cl [Example 386] | >10 µg/mL | >10 µg/mL | 29% | 2 µg/mL (≈ 4.35 µM) |  |  |  | 
32 | COc1cc(OC)c(NC(=S)Nc2ccc(NC(=O)c3cccc(O)c3)cc2)cc1Cl [Example 254] | 0.9 µg/mL (≈ 1.97 µM) | 4 µg/mL (≈ 8.73 µM) | 110% | 4 µg/mL (≈ 8.73 µM) |  |  |  | 
